How the values were obtained:
ABC1 = details: dose-dependent; Becq et al. 1997, Hamon et al. 1997; cited from earlier work
normal fibroblasts = test: Apo A-I-mediated lipid efflux from normal fibroblasts with ABC1 transport inhibitors; assay type: cell-based, human; details: 0.2 or 0.4 mM, 6 hours, 5 μg/ml apo A-I
Experimental: To test whether inhibition of ABC1 could affect the process of apolipoprotein-mediated cholesterol efflux, two compounds reported to be ABC1 inhibitors were tested in assays which monitor apolipoprotein mediated cholesterol efflux. […] The apolipoprotein-mediated cholesterol efflux assays were performed as described in Example 1 with the noted changes.
Cholesterol-loaded and [^3H]cholesterol-labeled normal fibroblasts (n=3) were incubated for 6 hours with or without 5 μg/ml apo A-I and either 0, 0.2 mM, or 0.4 mM DIDS. In addition, cholesterol-loaded and [^3H]cholesterol-labeled normal fibroblasts (n=3) were incubated for 6 hours with or without 5 μg/ml apo A-I and either 0, 0.2 mM, or 0.4 mM BSP. […] The results are shown in FIG. 5 as the mean±SD (n=3) of efflux in the presence of apo A-I after subtraction of values for apo A-I-free medium. […] The results of these tests mimic the efflux defect in fibroblasts derived from patients with TD, described in Example 1.

[1] = system: ABC1 5' flanking region with mutated sterol response element; test: Luciferase reporter construct 1080-1643 with mutated sterol response element in RAW 264.7 cells; assay type: cell-based, mouse; details: mutated sequence nt 1080-1643, sterol response element mutated
Experimental: (§1) Luciferase Assay: Following transfection, the cells in each well were lysed in 70 μl of 1× cell lysis reagent (Promega, Madison, Wis., Cat. #E3971), subjected to one freeze-thaw cycle, and the lysate cleared by centrifugation for 5 minutes at 12,000 g. After centrifugation, 100 μl of luciferase assay reagent (Promega, Madison, Wis.; Cat. #E1501) was added to 10 μl of lysate. The luciferase activity of each lysate was measured as light units using a luminometer. Additionally, the β-galactosidase activity of each lysate was measured using the chemiluminescent assay reagents supplied in the Galacto-light kit according to the manufacturer's instructions (Tropix Inc., Bedford, Mass.: Cat. #BL100G). The normalized luciferase activity for each lysate was determined by dividing the luciferase activity value by the determined 0-galactosidase value and reported as relative light units.
Transfection of Reporter Constructs: The RAW 264.7 cells were maintained in culture and transfected with either pGL3-Basic (1 μg), pAPR1 (1 μg), or one of the other reporter constructs according to the method described in Example 15. […] The luciferase activity was measured and reported as relative light units as described in Example 15. […]

RAW 264.7 cells = test: Apo A-I-mediated cholesterol efflux from cholesterol-loaded RAW 264.7 macrophage cells; details: for increase in apoAI-induced cholesterol efflux: 9 cis-retinoic acid 30 ng/ml, 22(R)hydroxycholesterol 5 μg/ml, fenfibrate 3 μg/ml, PGI2 25 nm, PGE1 25 nM
Experimental: Assay to Measure Lipid Efflux: Apo AI-mediated efflux of cholesterol and, phospholipid was assayed according to the method described in. […] RAW 264.7 cells were cholesterol-loaded through the scavenger receptor by 24-hour incubation with acetylated LDL as described in Smith et al., J. Biol. Chem., 271:30647-30655 (1996). Briefly, RAW 264.7 cells in 24-well dishes were cholesterol-loaded and labeled overnight in 0.5 ml of DMEM supplemented with 50 μl/ml 1M glucose, 10 μl/ml 200 mM glutamine and 2% BSA and with 50 μg/ml acetylated low density lipoprotein (AcLDL) and [^3H]-cholesterol which had been pre-incubated for 30 minutes at 37° C. with AcLDL to yield a final concentration of 0.33 μCi/ml [^3H]-cholesterol. Cells were subsequently washed five times with PBS containing 1% BSA and incubated overnight (16-18 hours) in DMEM/BSA to allow for equilibrium of cholesterol pools. After equilibrium of cholesterol pools, cells were rinsed four times with PBS/BSA and incubated for one hour at 37° C. with DMEM/BSA before the efflux incubations. Efflux medium (DMEM/BSA) containing either albumin alone (control), albumin plus HDL (40 μg protein/ml), or albumin plus apo A-I (10 μg/ml, Biodesign International, Kennebunk, Me.) was added and the cells were incubated for 4, 24, or 48 hours. […] The radioactivity found in the culture medium was measured by scintillation counting after a 15-minute centrifugation at 12,000 g. The radioactivity in the cells was measured by scintillation counting after solubilization in 0.5 ml of 0.2M NaOH (Smith et al., J. Biol. Chem., 271:30647-30655 (1996)) or extraction in hexane:isopropanol (3:2 v/v) as described in Francis, et al., J. Clin. Invest., 96, 78-87 (1995). […] The efflux of cholesterol or phospholipid was expressed as the percentage of tritiated lipid counts in the medium over the total tritiated lipid counts recovered from the cells and medium (cpm medium/cpm (medium+lysate)×100).
Briefly, RAW 264.7 cells suspended at a density of 1.25×10^5 cells/ml were grown in DMEM/10% FBS supplemented with pyruvate. After 24 hours, the medium was removed and replaced with DMEM/BSA plus radiolabeled cholesterol (1 μCi/ml ^3[H]-cholesterol) and 50 μg/ml of acetylated LDL for 24 hours. The cells were then maintained for 24 hours in equilibrium medium consisting of DMEM/BSA plus either apo A-I alone (20 μg/ml), apo A-I and 8-bromo 3′, 5′ cAMP (1 mM) or apo A-I and rolipram (50 μM).

ABC1 5' flanking region = test: Luciferase reporter constructs with portions of the ABC1 5' flanking region in RAW 264.7 cells; assay type: cell-based, mouse; details: wild-type sequence nt 1080-1643 of SEQ ID NO: 3
Experimental: as §1
Construction of Reporter Constructs: Reporter construct pAPR1 and control reporter construct pGL3-Basic were obtained as described in Example 15. […]
Transfection of Reporter Constructs: The RAW 264.7 cells were maintained in culture and transfected with either pGL3-Basic (1 μg), pAPR1 (1 μg), or one of the other reporter constructs according to the method described in Example 15. […] The luciferase activity was measured and reported as relative light units as described in Example 15.

ABC1 mRNA = ABC1 mRNA by RT-PCR in RAW 264.7 cells; assay type: cell-based, mouse; details: single ligand 10 μM, 24 hours, serum-free DMEM/BSA
Experimental: RT-PCR: Quantitative PCR was carried out using the GeneAmp 5700 Sequence. Detection System (Perkin-Elmer Applied Biosystems, Foster City, Calif.). Briefly, 500 ng of DNase-treated mRNA was reverse transcribed using random hexamer primers at 2.5 μM. Approximately 5% of this reaction was amplified by PCR using the SYBR green core kit (PE. Applied Biosystems, Foster City, Calif.; Cat. #4304886) and human ABC1 primers LF: 5′-[…] (SEQ ID NO: 11) and LR: 5′-[…] (SEQ ID NO: 12) to yield an 82 bp fragment corresponding to nucleotides 7018-7099 of human ABC1. PCR cycle conditions were as follows: 10 minutes 95° C.; followed by 40 cycles of 95° C., 15 seconds; and 60° C., 60 seconds. The mRNA in each sample was quantitated by detecting the increase in fluorescence caused by SYBR green binding to the double-stranded amplification product generated during each PCR cycle. All samples were run in triplicate and normalized against 0-actin mRNA, amplified in parallel reactions with primers actinF: 5′-[…] (SEQ ID NO: 54) and actinB: 5′-[…] […]
Mouse RAW 264.7 cells were grown to subconfluence in DMEM/10% FBS and then treated for 24 hours in serum-free DMEM/BSA with either 9-cis retinoic acid (10 μM), 20-hydroxycholesterol (10 μM), or both ligands together (20 μM total). […] RNA was extracted, treated with DNase, and ABC1 mRNA measured by RT-PCR using PE Biosystems SYBR Green Technology as described in Example 9.

ABC1 promoter = test: pAPR1 luciferase reporter under control of the ABC1 promoter in RAW 264.7 cells; assay type: cell-based, mouse; details: pAPR1-transfected RAW 264.7; 10 μM each ligand (20 μM total for both), 24 hours
Excerpt: Construction of Reporter Plasmids: Plasmid pGL3-Basic (Promega, Madison, Wis.; Cat. #E1751) was used as a control plasmid containing the promoterless luciferase gene. The reporter construct containing the ABC1 promoter and luciferase gene was made by cloning a genomic fragment from the 5′ flanking region of the ABC1 gene (hAPRI 5′ promoter, corresponding to nucleotides 1080-1643 of SEQ ID NO: 3) into the Sacd site of the GL3-Basic plasmid to generate plasmid GL-6a. Next, plasmid GL-6a was digested with SneI and Acc651. […]
as §1, with “After centrifugation, 100 μl of luciferase assay reagent (Promega, Madison, Wis.; Cat. #E1501) was added to 10 μl of lysate.” left out, “units. […]” for “units.”

normal skin fibroblasts = test: Apo A-I-mediated cholesterol efflux after antisense inhibition of ABC1 mRNA; assay type: cell-based, human; details: 30 μM oligonucleotide, apo A-I-mediated efflux after 12 hours
Experimental: Normal skin fibroblasts were labeled with [^3H]cholesterol as described in Example 1.
The cells were then loaded with oligonucleotide by scraping in the presence of either 30 μM control. Morpholino oligonucleotide (5′-[…]-3′ corresponding to the antisense complement of a β-globin thalassemic mRNA; SEQ ID NO: 52) or […] ABC1 antisense. Morpholino oligonucleotide (5′-[…]-3′; SEQ ID NO: 53) and reseeding on new dishes. Control cells were mock-loaded after [^3H]cholesterol-labeling by scraping and reseeding in the absence of oligonucleotide. […] The results are shown in FIG. 6 as the mean±SEM of three separate experiments, normalized to the value for apo A-I-specific efflux in the absence of oligonucleotide in each experiment.

With `O=C1OC(c2ccc(O)c(S(=O)(=O)O)c2)(c2ccc(O)c(S(=O)(=O)O)c2)c2c(Br)c(Br)c(Br)c(Br)c21` [BSP, sulphobromophthaleine] as the molecule, how does the “anion transport activities of ABC1” value (ABC1) read?
The value was “inhibit”.

What about the “effect on apo A-I-mediated efflux of tritiated cholesterol” value (normal fibroblasts) of the same molecule?
Its value is “inhibit”.

For `CC(C)CC[C@@H](O)[C@@H](C)[C@H]1CC[C@H]2[C@@H]3CC=C4C[C@@H](O)CC[C@]4(C)[C@H]3CC[C@]12C` [22(R)-hydroxycholesterol], which “transcriptional response (luciferase activity)” value (from here on “transcriptional response”) [1] is on record?
The value was “did not produce a transcriptional response”.

With `CC(C)OC(=O)C(C)(C)Oc1ccc(C(=O)c2ccc(Cl)cc2)cc1` [fenfibrate] as the molecule, how does the “increase in apoAI-induced cholesterol efflux” value (RAW 264.7 cells) read?
Its value is ~2 fold.

Which cholesterol efflux (RAW 264.7 cells; 0.3 ng/ml 9-cis-RA with apo A-I) does the source give for `CC1=C(/C=C/C(C)=C\C=C\C(C)=C\C(=O)O)C(C)(C)CCC1` [9-cis retinoic acid] here?
The cholesterol efflux was 1522 c.p.m.

What about the cholesterol efflux (RAW 264.7 cells; 3.0 ng/ml 9-cis-RA with apo A-I) of the same molecule?
Its cholesterol efflux is 3568 c.p.m.

What about the cholesterol efflux (RAW 264.7 cells; 30 ng/ml 9-cis-RA with apo A-I) of the same molecule?
The cholesterol efflux was 8597 c.p.m.

What about the “increase in apoAI-induced cholesterol efflux” value (RAW 264.7 cells) of the same molecule?
Its value is ~3 fold.

And the “transcriptional response” value (ABC1 5' flanking region)?
The value was “produced a transcriptional response”.

What about the “ABC1 mRNA expression” value (ABC1 mRNA) of the same molecule?
The value was “increase in ABC1 mRNA expression”.

What about the “increase in luciferase reporter activity compared with EtOH control” value (ABC1 promoter) of the same molecule?
Its value is 16 fold.

Which “reduction in cholesterol efflux compared with control anti-sense oligonucleotide” value (normal skin fibroblasts) does the source give for “ABC1 antisense. Morpholino oligonucleotide: Morpholino 5′-CATGTTGTTCATAGGGTGGGTAGCTC-3′; SEQ ID NO: 53, directed against ABC1 mRNA (all phosphorodiamidate morpholino (PMO))” here?
The value was 50%.

For `CCCCC[C@H](O)/C=C/[C@@H]1[C@H]2C/C(=C/CCCC(=O)O)O[C@H]2C[C@H]1O` [PGI2, prostacyclin PGI2], which “increase in apoAI-induced cholesterol efflux” value (RAW 264.7 cells) is on record?
The value was ~2 fold.

For `CC(C)CCC[C@](C)(O)[C@H]1CC[C@H]2[C@@H]3CC=C4C[C@@H](O)CC[C@]4(C)[C@H]3CC[C@@]21C` [20(S)-hydroxycholesterol], which “transcriptional response” value (ABC1 5' flanking region) is on record?
The value was “produced a transcriptional response”.

What about the “ABC1 mRNA expression” value (ABC1 mRNA) of the same molecule?
The value was “increase in ABC1 mRNA expression”.

And the “transcriptional response” value [1]?
The value was “did not produce a transcriptional response”.

Which “increase in apoAI-induced cholesterol efflux” value (RAW 264.7 cells) does the source give for `CCCCC[C@H](O)/C=C/[C@H]1[C@H](O)CC(=O)[C@@H]1CCCCCCC(=O)O` [PGE1, prostaglandin E1] here?
Its value is ~3 fold.

From patent publication US6835563B1, “Compositions and methods for increasing cholesterol efflux and raising HDL ATP binding cassette transporter protein ABC1” (CV Therapeutics, priority 1999, dated 2004)
